Results as given in PMC6372667 (Experimental & Molecular Medicine, 2019).
Like-named read-outs stand apart in the source and are kept apart here.

Tests used:
Electric eel AChE [1] = target: T1, Electric eel AChE (Electrophorus electricus, UniProt O42275); assay: In vitro cholinesterase enzyme assay (Ellman), AChE; assay type: biochemical
T1 construct: purchased Sigma-Aldrich Co
Description: (§1) BACE1 (human recombinant β-secretase) ([…]) and the BACE1 FRET (fluorescence resonance energy transfer) assay kit Red were purchased from ThermoFisher Scientific (P2985; Waltham, MA, USA). […] For the cell culture experiment, Dulbecco’s modified Eagle’s medium (DMEM), Opti-MEM, fetal bovine serum (FBS), and penicillin/streptomycin were obtained from Capricorn Scientific (Ebsdorfergrund, Germany). β-secretase inhibitor III (β-SI) was purchased from Calbiochem (Darmstadt, Germany). The protease inhibitor mixture (a mixture of AEBSF, pepstatin A, E-64, bestain, leupeptin, and aprotinin) was purchased from Sigma-Aldrich (St. Louis, MO, USA). Enzyme-linked immunosorbent assay (ELISA) kits for Aβ40 and Aβ42 were obtained from IBL (Kunma, Japan). All chemicals and solvents used were reagent grade, purchased from commercial sources, and used as received.
(§2) The inhibitory activities of pterosin derivatives against cholinesterases were measured using the method developed by Ellman et al.[32]. The reaction mixture contained 140 μL of sodium phosphate buffer (pH 8.0), 20 μL of test sample solution (final concentration of the compound 100 μM), and 20 μL of AChE or BChE solution, mixed and incubated for 15 min at room temperature. […] The reactions were initiated following the addition of 10 μL of DTNB and 10 μL of acetyl thiocholine iodide for the AChE assay or butyryl thiocholine chloride for the BChE assay in 96-well microplates, which were incubated for 15 min.

B16F10 mouse melanoma = assay: MTT cytotoxicity assay, B16F10; assay type: cell-based; conditions: 24 h
Description: (§3) Cytotoxicity was assessed using the MTT assay. Briefly, the cells were seeded into a 96-well plate at a density of 1×10^5 cells per well in 100 µL of corresponding media and incubated at 37 °C in an incubator under 5% CO2 tension for 24 h. The culture media were then replaced with 100 µL of fresh serum-free media in the presence of varied concentrations of pterosin derivatives, and cells were incubated for an additional 24 h. The control was treated with an equal amount of DMSO present in the assay for a 5 mM concentration. Then, 100 µL of MTT solution (0.5 mg/mL in Phosphate Buffered Saline (PBS)) was added to each culture. To measure the proportion of surviving cells, the media were replaced with 100 µL of DMSO 2 h after the administration of MTT solution. The absorbance was measured at 570 nm using a spectrophotometric plate reader (Molecular Devices, Sunnyvale, CA, USA).

[2] = target: T2, BACE1 (human recombinant β-secretase) (Homo sapiens, UniProt P56817); assay: In vitro BACE1 FRET enzyme assay; assay type: biochemical
T2 sequence (P56817 46-501): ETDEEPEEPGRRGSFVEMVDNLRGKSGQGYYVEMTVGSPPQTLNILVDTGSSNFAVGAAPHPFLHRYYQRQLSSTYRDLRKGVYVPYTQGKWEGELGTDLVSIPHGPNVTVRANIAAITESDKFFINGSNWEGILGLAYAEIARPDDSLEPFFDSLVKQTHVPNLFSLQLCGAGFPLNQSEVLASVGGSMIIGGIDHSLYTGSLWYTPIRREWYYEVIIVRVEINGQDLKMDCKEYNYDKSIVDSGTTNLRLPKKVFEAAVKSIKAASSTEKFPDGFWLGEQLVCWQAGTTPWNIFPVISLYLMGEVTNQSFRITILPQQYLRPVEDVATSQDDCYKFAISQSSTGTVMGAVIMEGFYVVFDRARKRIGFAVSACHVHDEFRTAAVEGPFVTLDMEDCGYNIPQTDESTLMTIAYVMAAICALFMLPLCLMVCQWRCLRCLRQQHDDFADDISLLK
Description: as §1
The BACE1 FRET assay was carried out according to the manufacturer’s instructions with slight modifications as previously described. The assay was performed in a […] black plate using a multi-pipette.

[3] = target: T2, BACE1 (human recombinant β-secretase); assay: Kinetic analysis of BACE1 inhibition (Dixon and Lineweaver−Burk plots); assay type: biochemical
Description: (§4) The Ki was determined by interpretation of the Dixon plot, with the value of the x-axis intercept taken as −Ki.
Dixon plots for BACE1 inhibition by pterosin derivatives.
Dixon plots for BACE1 inhibition by pteroside derivatives.

in vitro = in vitro ADME; conditions: for Papp at 4 h, 25 µg/mL: pig, PAMPA, read-out: PAMPA-BBB permeability Pe
Description: PAMPA (parallel artificial membrane permeation assay) was used as a high-throughput assay to predict BBB permeation. Porcine polar brain lipid (PBL) was used as an artificial membrane to predict BBB permeation. Initially, the test compound was dissolved in DMSO at 5 mg/mL. This compound stock solution (10 µL) was diluted 200-fold in a universal buffer at pH 7.4 and mixed with a multi 8-channel pipette to obtain the secondary stock solution (final concentration 25 µg/mL). The secondary stock solution (200 µL) was placed in the donor wells. The filter membrane was coated with PBL in dodecane (4 mL volume of 20 mg/mL PBL in dodecane), and 5 µL of BBB-1 lipid solution was spread on PBL by pipette. The acceptor well was filled with […] of Acceptor Sink Buffer. The acceptor filter plate was cautiously positioned on the donor plate to assemble a “sandwich” (comprising an aqueous acceptor, artificial lipid membrane and aqueous donor with test compound on the top, middle and bottom, respectively). The test compound diffuses from the donor well to the acceptor well through the lipid membrane. After 4 h of incubation at pH 7.4 and 25 °C, the concentration of the compound in the acceptor, donor, reference and blank wells was estimated with a UV plate reader, Epoch Microplate Spectrophotometer (BioTek Instruments, Inc., Winooski, VT, USA). […] Samples were analyzed in quadruplets, and the average of the four runs was reported. To monitor the consistency of the analysis set, quality control standards were run with each sample set.
PAMPA-BBB, an in vitro artificial membrane permeability assay for the BBB, is one of the most reliable physicochemical screening tools in the early stage discovery of CNS-targeted drugs. The PAMPA-BBB system models the transcellular passive diffusion of chemicals across the BBB and measures strictly passive transport mechanisms via an artificial lipid membrane on effective permeability (Pe, cm/s).

horse serum BChE [4] = target: T3, horse serum BChE (Equus caballus, UniProt P81908); assay: Kinetic analysis of BChE inhibition (Dixon and Lineweaver−Burk plots); assay type: biochemical
T3 construct: horse serum BChE (EC 3.1.1.8); purchased Sigma-Aldrich Co; host or cells: horse serum
T3 sequence (P81908 whole entry): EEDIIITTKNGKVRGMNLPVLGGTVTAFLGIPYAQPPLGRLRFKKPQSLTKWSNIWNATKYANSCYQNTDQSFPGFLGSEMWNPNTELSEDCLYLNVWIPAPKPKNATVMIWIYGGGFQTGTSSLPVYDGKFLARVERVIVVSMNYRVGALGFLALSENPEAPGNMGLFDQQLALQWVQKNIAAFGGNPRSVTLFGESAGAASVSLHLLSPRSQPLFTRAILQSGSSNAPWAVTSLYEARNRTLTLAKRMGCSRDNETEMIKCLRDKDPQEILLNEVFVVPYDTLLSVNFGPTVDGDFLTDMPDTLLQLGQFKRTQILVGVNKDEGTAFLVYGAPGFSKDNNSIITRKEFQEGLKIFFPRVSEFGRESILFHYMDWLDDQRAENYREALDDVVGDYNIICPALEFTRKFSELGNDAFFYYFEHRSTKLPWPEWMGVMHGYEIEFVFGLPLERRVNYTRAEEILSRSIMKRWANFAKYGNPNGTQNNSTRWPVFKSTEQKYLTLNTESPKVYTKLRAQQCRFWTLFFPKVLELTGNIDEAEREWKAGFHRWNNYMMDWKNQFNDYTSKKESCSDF
Description: as §4
Dixon plots for BChE inhibition by pterosin derivatives. (2S,3R)-Pterosin C (A), (2R,3R)-pterosin C (B), and (2R)-pterosin B (C) were tested in the presence of substrate concentrations of 0.2 mM (●), 0.4 mM (○), and 0.8 mM (▼).
Dixon plots for BChE inhibition by pteroside derivatives. (2R)-pteroside B (A), (2R,3R)-pteroside C (B), and (3S)-pteroside D (C) were tested in the presence of substrate concentrations of 0.2 mM (●), 0.4 mM (○), and 0.8 mM (▼). Lineweaver-Burk plots for BChE inhibition were generated with inhibitor concentrations of 0 µM (Δ), 4 µM (▼), 20 µM (○), and 100 µM (●) for (2R)-pteroside B (D); 0 µM (Δ), 0.8 µM (▼), 4 µM (○), and 20 µM (●) for (2R,3R)-pteroside C (E) and (3S)-pteroside D (F).

Electric eel AChE [5] = target: T1, Electric eel AChE; assay: Kinetic analysis of AChE inhibition (Dixon and Lineweaver−Burk plots); assay type: biochemical
Description: as §4
Dixon plots for AChE inhibition by pterosin derivatives. (2S,3R)-Pterosin C (A), (2R,3R)-pterosin C (B), and (2R)-pterosin B (C) were tested in the presence of substrate concentrations of 0.1 mM (●), 0.3 mM (○), and 0.6 mM (▼). Lineweaver-Burk plots for AChE inhibition were generated with inhibitor concentrations of 0 µM (Δ), 4 µM (▼), 20 µM (○), and 100 µM (●) for (2S,3R)-pterosin C (D) and (2R,3R)-pterosin C (E); and 0 µM (Δ), 2 µM (▼), 10 µM (○), and 50 µM (●) for (2R)-pterosin B (F).
Dixon plots for AChE inhibition by pteroside derivatives. (2R)-pteroside B (A), (2R,3R)-pteroside C (B), and (3S)-pteroside D (C) were tested in the presence of substrate concentrations of 0.1 mM (●), 0.3 mM (○), and 0.6 mM (▼). Lineweaver-Burk plots for AChE inhibition were generated with inhibitor concentrations of 0 µM (Δ), 0.8 µM (▼), 4 µM (○), and 20 µM (●) for (2R)-pteroside B (D), (2R,3R)-pteroside C (E), and (3S)-pteroside D (F).

[6] = system: NIH3T3 mouse embryo fibroblasts; assay: MTT cytotoxicity assay, NIH3T3; assay type: cell-based; conditions: 24 h
Description: as §3

C6 rat glial cells = assay: MTT cytotoxicity assay, C6; assay type: cell-based; conditions: 24 h
Description: as §3

horse serum BChE [7] = target: T3, horse serum BChE; assay: In vitro cholinesterase enzyme assay (Ellman), BChE; assay type: biochemical
Description: as §1, §2

[8] = system: SH-SY5Y human neuroblastoma; assay: MTT cytotoxicity assay, SH-SY5Y; assay type: cell-based; conditions: 24 h
Description: as §3

[9] = Dixon and Lineweaver−Burk plots
[10] = mean ± S.D. of three experiments, read-out: IC50 AChE
[11] = mean ± S.D. of three experiments
[12] = 4 h, pH 7.4, 25 °C, mean ± SD of quadruple experiments
[13] = mean ± S.D. of three experiments, read-out: IC50 BChE

T1 sequence (O42275 24-633): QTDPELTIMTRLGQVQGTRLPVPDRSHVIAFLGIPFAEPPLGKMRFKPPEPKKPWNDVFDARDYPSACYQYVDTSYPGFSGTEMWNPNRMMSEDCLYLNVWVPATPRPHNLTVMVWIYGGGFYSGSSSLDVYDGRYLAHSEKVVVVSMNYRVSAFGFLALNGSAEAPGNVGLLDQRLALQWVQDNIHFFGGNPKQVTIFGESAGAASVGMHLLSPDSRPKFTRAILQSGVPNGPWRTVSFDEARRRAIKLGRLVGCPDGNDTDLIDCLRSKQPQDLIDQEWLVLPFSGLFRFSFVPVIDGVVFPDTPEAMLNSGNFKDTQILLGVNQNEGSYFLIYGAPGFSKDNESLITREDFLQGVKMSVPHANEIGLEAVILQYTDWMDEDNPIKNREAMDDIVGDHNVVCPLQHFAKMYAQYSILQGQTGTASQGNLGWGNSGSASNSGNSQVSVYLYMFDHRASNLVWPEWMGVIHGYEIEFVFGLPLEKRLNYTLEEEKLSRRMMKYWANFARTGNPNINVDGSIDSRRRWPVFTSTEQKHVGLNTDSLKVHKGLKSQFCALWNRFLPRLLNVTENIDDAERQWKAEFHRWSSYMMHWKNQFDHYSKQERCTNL

SMILES | LD50 Based on MTT Assay, B16F10 (B16F10 mouse melanoma) | LD50 Based on MTT Assay, NIH3T3 [6] | LD50 Based on MTT Assay, C6 (C6 rat glial cells) | LD50 Based on MTT Assay, SY-SY5Y [8] | IC50 (Electric eel AChE [1]; [10]) [µM] | IC50 [2, 11] [µM] | Papp at 4 h, 25 µg/mL (in vitro; [12]) [×10⁻⁶ cm/s] | IC50 (horse serum BChE [7]; [13]) [µM] | also measured
Cc1cc2c(c(C)c1CCO)C(=O)[C@H](C)[C@H]2O [(2R,3R)-Pterosin C, (2R,3R)-pterosin C] | >5,000 µM | >5,000 µM | 694 ± 9.7 µM | 719 ± 25 µM |  |  |  |  | IC50 (Electric eel AChE [1]): 23.2 ± 4.6 µM; IC50 [2]: 26.2 ± 6.3 µM; Ki [3]: 27.6 µM; Inhibition type BACE1 [3, 9]: Mixed-type; log Pe (in vitro): -5.70; Papp at 4 h, 25 µg/mL (in vitro; pH 7.4): 1.98 ± 0.17 ×10⁻⁶ cm/s; Ki (horse serum BChE [4]): 4.77 µM; Inhibition type BChE (horse serum BChE [4]; [9]): Mixed-type; Ki (Electric eel AChE [5]): 29.6 µM; Inhibition type AChE (Electric eel AChE [5]; [9]): Noncompetitive; IC50 (horse serum BChE [7]): 20.3 ± 0.88 µM
Cc1cc2c(c(C)c1CCO)C(=O)C(C)(COC1OC(CO)C(O)C(O)C1O)C2 [(2S)-Pteroside A2, (2S)-pteroside A2] | >5,000 µM | >5,000 µM | >5,000 µM | 1,010 ± 60 µM | 39.3 ± 1.9 | 94.4 ± 4.5 | 0.54 ± 0.51 | 119 ± 2.5 | 
Cc1c(CCO[C@@H]2O[C@H](CO)[C@@H](O)[C@H](O)[C@H]2O)c(CO)cc2c1C(=O)[C@@H](C)C2 [(2S)-Pteroside P, (2S)-pteroside P] | >5,000 µM | >5,000 µM | >5,000 µM | 1,090 ± 99 µM | 57.5 ± 3.2 | > 125 |  | 33.2 ± 3 | IC50 BACE1 [2, 11]: inactive at the concentrations tested
Cc1cc2c(c(C)c1CCO)C(=O)[C@](C)(CO)C2 [(2S)-Pterosin A, (2S)-pterosin A] | 522 ± 25 µM | >5,000 µM | >5,000 µM | 1,210 ± 110 µM | 56.7 ± 2.6 | > 125 | 6.26 ± 0.24 | 67.3 ± 3.3 | IC50 BACE1 [2, 11]: inactive at the concentrations tested; log Pe (in vitro; PAMPA-BBB): -5.20; BBB permeation class (in vitro; PAMPA-BBB, classified by Pe, given in words): high BBB permeation
Cc1cc2c(c(C)c1CCO[C@@H]1O[C@H](CO)[C@@H](O)[C@H](O)[C@H]1O)C(=O)[C@@H](C)[C@H]2O [(2S,3R)-Pteroside C, (2S,3R)-pteroside C] | >5,000 µM | >5,000 µM | >5,000 µM | 711 ± 35 µM | 9.17 ± 0.82 | 28.9 ± 2.2 | 0.29 ± 0.34 | 13 ± 0.14 | 
Cc1cc2c(c(C)c1CCO[C@@H]1O[C@H](CO)[C@@H](O)[C@H](O)[C@H]1O)C(=O)C(C)(C)C2 [Pteroside Z, pteroside Z] | >5,000 µM | >5,000 µM | 2,130 ± 62 µM | 1,430 ± 210 µM | 24.1 ± 1.1 | 53.3 ± 1.2 | 0.61 ± 0.17 | 5.31 ± 0.19 | 
Cc1cc2c(c(C)c1CCO)C(=O)C(C)(C)C2 [Pterosin Z, pterosin Z] | 618 ± 71 µM | 553 ± 37 µM | 1,850 ± 65 µM | 495 ± 24 µM |  | 80 ± 5.9 |  |  | IC50 (Electric eel AChE [1]): 46.5 ± 3.4 µM; IC50 (horse serum BChE [7]): 80.1 ± 6.8 µM
